Tested on: 648629-189-R-J1-PDC spheroids with HUVEC/MSC, viability
Experiment: Anticancer human tumor 648629-189-R-J1-PDC patient-derived bladder carcinoma cell line growth inhibition [PI3K]
Details: for IC50: curve of first compound; for viability, T/C: stronger effect = lower value
Excerpt: Combinatorial screen of targeted agents with the PI3K inhibitors inavolisib, alpelisib, duvelisib, and copanlisib in multi-cell type tumor spheroids
A high-throughput screen of multi-cell type tumor spheroids was designed to identify active combinations of targeted small molecules and PI3K pathway inhibitors. Complex spheroids include a stromal component modeled by human endothelial cells (HUVEC) and fibroblasts modeled by human mesenchymal stem cells (MSCs). The concentration ranges selected for each drug and investigational agent were based upon clinically achievable concentrations if the clinical Cmax of the agent was known.
Compounds. The drugs and investigational agents: inavolisib (NSC800729), alpelisib (NSC765974), duvelisib (NSC772469), copanlisib (NSC816437), ipatasertib (NSC767898), afuresertib (NSC778305), talazoparib (NSC767125), sapanisertib (NSC764658), selumetinib (NSC741078), tovorafenib (DAY101, NSC766906), vemurafenib (NSC761431), ravoxertinib (NSC781343), sotorasib (NSC818433), MRTX1133 (NSC 836407), abemaciclib (NSC 768073), palbociclib (NSC758247), venetoclax (NSC 766270), SY5609 (NSC837396), enzalutamide (NSC755605), and darolutamide (NSC825331), were obtained from the National Cancer Institute (NCI) Developmental Therapeutics Program Chemical Repository. The FDA-approved anticancer drug set is available from the NCI Developmental Therapeutics Program. […] The stock solutions were prepared in dimethyl sulfoxide (DMSO, Sigma-Aldrich, St. Louis, MO, cat. D2650) at 800-fold the tested concentration and stored at -70 degrees C prior to their use. All drugs and investigational agents were tested over a range starting from a high concentration at or near the clinical Cmax and decreasing in half-log increments. If the clinical Cmax for an agent had not been determined, the highest concentration tested was 10 microM.
Cell Culture. All cells were maintained in an incubator at 37 degrees C and 5% CO2 with 95% humidity. The PDC lines were cultured according to standard operating procedures established by the NCI PDMR (https://pdmr.cancer.gov/sops/default.htm). All PDCs were thawed and cultured in Matrigel-coated flasks prepared with a working solution of 1X Ham's F-12 nutrient mix, without supplementation (Invitrogen, Waltham, MA, cat. 11765054), 100 U/mL penicillin-streptomycin (Invitrogen, cat. 15140122), and 2.5% Matrigel (Corning Inc., Corning, NY, cat. 354248) for the first three passages. The 354836-022-R-J1-PDC, 475296-252-R-J1-PDC, and 997726-040-R-J2-PDC lines were cultured in 6A media, which includes advanced DMEM/F-12 (Thermo Fisher Scientific, cat. 12634028), 10 mM HEPES (Thermo Fisher Scientific, cat. 15630080), 1X GlutaMAX supplement (Thermo Fisher Scientific, cat. 35050061), 0.1 mg/mL primocin (InvivoGen, San Diego, CA, cat. ant-pm-2), 10% defined fetal bovine serum, heat inactivated (HyClone Laboratories Inc., Logan, UT, cat. SH30070.03HI), 50% L-WRN conditioned media (ATCC, cat. CRL-3276), 1.25 mM N-Acetyl-L-cysteine (Sigma-Aldrich, cat. A9165), 10 mM nicotinamide (Sigma-Aldrich, cat. N0636), 1X B-27 supplement (Thermo Fisher Scientific, cat. 17504044), 1X N-2 supplement (Thermo Fisher Scientific, cat. 17502048), and 10 microM Y-27632 dihydrochloride (Tocris Bioscience, Bristol, United Kingdom, cat. 1254). The 624824-186-R-J2-PDC line was cultured in 6C/Colon 1B media, which includes all 6A media components plus 50 ng/mL human EGF recombinant protein (Thermo Fisher Scientific, cat. PHG0311). […]

[1] = second compound 0.00316 µM, first compound 0.0316 µM
[2] = second compound 0.00316 µM, first compound 0.1 µM
[3] = second compound 0.01 µM, first compound 0.0316 µM
[4] = second compound 0.01 µM, first compound 0.1 µM
[5] = second compound 0.0316 µM, first compound 0.0316 µM
[6] = second compound 0.0316 µM, first compound 0.1 µM
[7] = second compound 0.1 µM, first compound 0.0316 µM
[8] = second compound 0.1 µM, first compound 0.1 µM
[9] = second compound 0.316 µM, first compound 0.0316 µM
[10] = second compound 0.316 µM, first compound 0.1 µM
[11] = second compound 1 µM, first compound 0.0316 µM
[12] = second compound 1 µM, first compound 0.1 µM
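Further: spheroids exposed to agents for seven days before reading.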
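Wherever viability, T/C is given: percent of vehicle control luminescence where 100% = DMSO treated spheroids.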

Cn1ncnc1[C@H]1c2n[nH]c(=O)c3cc(F)cc(c23)N[C@@H]1c1ccc(F)cc1 + COc1c(OCCCN2CCOCC2)ccc2c3n(c(=NC(=O)c4cnc(N)nc4)nc12)CCN3
IC50 (second compound 0.00316 µM): > 100 nM
IC50 (second compound 0.01 µM): > 100 nM
IC50 (second compound 0.0316 µM): > 100 nM
IC50 (second compound 0.1 µM): 32.2 nM
IC50 (second compound 0.316 µM): < 0.316 nM
IC50 (second compound 1 µM): < 0.316 nM
viability, T/C (second compound 0.00316 µM, first compound 0.000316 µM): 100%
viability, T/C (second compound 0.00316 µM, first compound 0.001 µM): 92.2%
viability, T/C (second compound 0.00316 µM, first compound 0.00316 µM): 106%
viability, T/C (second compound 0.00316 µM, first compound 0.01 µM): 88.5%
viability, T/C [1]: 83.4%
viability, T/C [2]: 59.3%
viability, T/C (second compound 0.01 µM, first compound 0.000316 µM): 92.3%
viability, T/C (second compound 0.01 µM, first compound 0.001 µM): 92.1%
viability, T/C (second compound 0.01 µM, first compound 0.00316 µM): 88.7%
viability, T/C (second compound 0.01 µM, first compound 0.01 µM): 93.6%
viability, T/C [3]: 86.5%
viability, T/C [4]: 60.6%
viability, T/C (second compound 0.0316 µM, first compound 0.000316 µM): 88.5%
viability, T/C (second compound 0.0316 µM, first compound 0.001 µM): 93.3%
viability, T/C (second compound 0.0316 µM, first compound 0.00316 µM): 85.4%
viability, T/C (second compound 0.0316 µM, first compound 0.01 µM): 73.5%
viability, T/C [5]: 65.6%
viability, T/C [6]: 55.3%
viability, T/C (second compound 0.1 µM, first compound 0.000316 µM): 66.7%
viability, T/C (second compound 0.1 µM, first compound 0.001 µM): 60.7%
viability, T/C (second compound 0.1 µM, first compound 0.00316 µM): 57.5%
viability, T/C (second compound 0.1 µM, first compound 0.01 µM): 57.2%
viability, T/C [7]: 51.8%
viability, T/C [8]: 41%
viability, T/C (second compound 0.316 µM, first compound 0.000316 µM): 20.3%
viability, T/C (second compound 0.316 µM, first compound 0.001 µM): 19.2%
viability, T/C (second compound 0.316 µM, first compound 0.00316 µM): 18.7%
viability, T/C (second compound 0.316 µM, first compound 0.01 µM): 16.4%
viability, T/C [9]: 20%
viability, T/C [10]: 15.4%
viability, T/C (second compound 1 µM, first compound 0.000316 µM): 4.4%
viability, T/C (second compound 1 µM, first compound 0.001 µM): 3.64%
viability, T/C (second compound 1 µM, first compound 0.00316 µM): 3.49%
viability, T/C (second compound 1 µM, first compound 0.01 µM): 3.59%
viability, T/C [11]: 3.84%
viability, T/C [12]: 2.43%

CC(C)NCC(C(=O)N1CCN(c2ncnc3c2C(C)CC3O)CC1)c1ccc(Cl)cc1 (centres undefined) + COc1c(OCCCN2CCOCC2)ccc2c3n(c(=NC(=O)c4cnc(N)nc4)nc12)CCN3
IC50 (second compound 0.00316 µM): 901 nM
IC50 (second compound 0.01 µM): 1030 nM
IC50 (second compound 0.0316 µM): 698 nM
IC50 (second compound 0.1 µM): 144 nM
IC50 (second compound 0.316 µM): < 31.6 nM
IC50 (second compound 1 µM): < 31.6 nM
viability, T/C [1]: 90.2%
viability, T/C [2]: 91.7%
viability, T/C (second compound 0.00316 µM, first compound 0.316 µM): 79%
viability, T/C (second compound 0.00316 µM, first compound 1 µM): 45.4%
viability, T/C (second compound 0.00316 µM, first compound 3.16 µM): 26.1%
viability, T/C (second compound 0.00316 µM, first compound 10 µM): 14.3%
viability, T/C [3]: 102%
viability, T/C [4]: 73.5%
viability, T/C (second compound 0.01 µM, first compound 0.316 µM): 75.1%
viability, T/C (second compound 0.01 µM, first compound 1 µM): 54%
viability, T/C (second compound 0.01 µM, first compound 3.16 µM): 26.2%
viability, T/C (second compound 0.01 µM, first compound 10 µM): 13.3%
viability, T/C [5]: 77.7%
viability, T/C [6]: 77.6%
viability, T/C (second compound 0.0316 µM, first compound 0.316 µM): 67.1%
viability, T/C (second compound 0.0316 µM, first compound 1 µM): 40.5%
viability, T/C (second compound 0.0316 µM, first compound 3.16 µM): 24.6%
viability, T/C (second compound 0.0316 µM, first compound 10 µM): 11.6%
viability, T/C [7]: 60.1%
viability, T/C [8]: 51.3%
viability, T/C (second compound 0.1 µM, first compound 0.316 µM): 45%
viability, T/C (second compound 0.1 µM, first compound 1 µM): 27%
viability, T/C (second compound 0.1 µM, first compound 3.16 µM): 16.9%
viability, T/C (second compound 0.1 µM, first compound 10 µM): 8.23%
viability, T/C [9]: 19.3%
viability, T/C [10]: 18.4%
viability, T/C (second compound 0.316 µM, first compound 0.316 µM): 14.6%
viability, T/C (second compound 0.316 µM, first compound 1 µM): 12%
viability, T/C (second compound 0.316 µM, first compound 3.16 µM): 7.28%
viability, T/C (second compound 0.316 µM, first compound 10 µM): 2.74%
viability, T/C [11]: 2.91%
viability, T/C [12]: 2.63%
viability, T/C (second compound 1 µM, first compound 0.316 µM): 3.85%
viability, T/C (second compound 1 µM, first compound 1 µM): 3%
viability, T/C (second compound 1 µM, first compound 3.16 µM): 2.11%
viability, T/C (second compound 1 µM, first compound 10 µM): 0.84%

From PubChem BioAssay AID1963974 (Molecular Pharmacology Branch, DTP, NCI, 2024)
